# Biological target: T1, wild type mGluR2 (Homo sapiens, UniProt Q14416)
# T1 construct: expressed in transfected cells; host or cells: HEK293 cells, transient lipid transfection (Effectene, MAGEC plate protocol)
# Experiment: Phosphoinositide hydrolysis, wild-type mGluR2 (FIG. 1)
# Assay type: cell-based
# Conditions: HEK-293 cells transfected with wild-type mGluR2; 5 uM glutamate; normalized to 1 mM glutamate control
# Text: For mGluR2 and mGluR3 mutants, the mGluR2/Gα16 nucleic acids are mixed with a lipid-based transfection reagent and are deposited into a well of a multi-well plate coated with fibronectin. The resulting DNA/lipid complexes are subsequently dried in vacuo then seeded with HEK293 cells. This is based on a method designated as MAGECTM, and disclosed in U.S. Provisional Application No. 60/372,476, filed Apr. 15, 2002, and titled, “Matrix Analyses of Gene Expression in Cells.”
# 11. Approximately forty hours after plating, the cells are analyzed in the phosphoinositide hydrolysis assay.
# Phosphoinositide hydrolysis was determined by measuring the accumulation of tritiated inositol monophosphate ([^3H]-IP1) in the presence of LiCl. The method is taken from Berridge: Biochem J (1983) 212: 849-58. This determination provides for comparative data on the level of potentiation and loss of potentiation when testing a purported or known allosteric modulator in the presence of glutamate and either a wild-type mGluR2 or mGluR3 and at least one mutant of the respective mGluR2 or mGluR3.
# 1. HEK293 cells that were previously transiently transfected with hmGluR2 and Gα16 were labeled overnight with 1 μCi/well myo-[2-^3H]-inositol in a […] DMEM medium.
# 2. […]
# 12. The sample was quantified in a scintillation counter after a two-hour waiting period. […]
# T1 sequence (Q14416 19-872): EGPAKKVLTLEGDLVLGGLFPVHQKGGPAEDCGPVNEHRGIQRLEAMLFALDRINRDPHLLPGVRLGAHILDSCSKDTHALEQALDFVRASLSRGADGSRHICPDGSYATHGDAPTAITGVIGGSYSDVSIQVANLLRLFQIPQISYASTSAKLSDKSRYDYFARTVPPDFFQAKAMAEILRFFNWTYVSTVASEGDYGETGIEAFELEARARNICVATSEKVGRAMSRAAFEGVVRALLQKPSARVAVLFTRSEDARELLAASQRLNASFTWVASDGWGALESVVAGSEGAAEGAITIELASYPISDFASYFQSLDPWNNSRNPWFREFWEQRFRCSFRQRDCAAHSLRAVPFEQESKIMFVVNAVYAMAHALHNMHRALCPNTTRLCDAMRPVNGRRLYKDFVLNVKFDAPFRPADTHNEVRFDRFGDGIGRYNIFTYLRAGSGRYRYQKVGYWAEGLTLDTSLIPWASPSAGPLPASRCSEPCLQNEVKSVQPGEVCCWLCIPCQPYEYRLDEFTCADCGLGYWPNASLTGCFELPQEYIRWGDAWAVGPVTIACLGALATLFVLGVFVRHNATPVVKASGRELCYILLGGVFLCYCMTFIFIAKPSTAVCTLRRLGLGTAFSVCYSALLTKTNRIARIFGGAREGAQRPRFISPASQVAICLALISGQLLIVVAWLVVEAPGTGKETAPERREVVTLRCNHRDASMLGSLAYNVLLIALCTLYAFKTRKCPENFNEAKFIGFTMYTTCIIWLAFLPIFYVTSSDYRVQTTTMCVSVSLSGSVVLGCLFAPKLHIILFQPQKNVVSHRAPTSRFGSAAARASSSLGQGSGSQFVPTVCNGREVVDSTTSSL
structure (smiles),measurement,value
COc1ccccc1Oc1cccc(N(Cc2cccnc2)S(=O)(=O)CC(F)(F)F)c1 [Compound A],"effect of modulator on response to glutamate, percent response compared to 1 mM glutamate positive control",up-regulating the response of mGluR2

# From patent US20060147923A1, “Nucleic acid sequences encoding novel point mutations on mglur2 and mglur3” (priority 2002, published 2006)
